Results from paper PMC8159961, “Exploring protein hotspots by optimized fragment pharmacophores” (Nature Communications, 2021).
Several values for one entry are separate records, joined by “and”; a condition that tells them apart may be missing. Equal values may be shown once. Read-outs that look alike come from different tables or passages of the source.

Columns and labels:
human 5-HT1A receptor = molecular target: T1, human 5-HT1A receptor (Homo sapiens, UniProt P08908); experiment: GPCR radioligand binding assay, [3H]-8-OH-DPAT displacement, HEK293 membranes; settings: for experimental hit status, 5-HT1: 1 = hit, 0 = no hit, tested at 10 µM, hit = 50% or stronger inhibition
T1 construct: expressed in transfected cells
T1 sequence (P08908 1-422): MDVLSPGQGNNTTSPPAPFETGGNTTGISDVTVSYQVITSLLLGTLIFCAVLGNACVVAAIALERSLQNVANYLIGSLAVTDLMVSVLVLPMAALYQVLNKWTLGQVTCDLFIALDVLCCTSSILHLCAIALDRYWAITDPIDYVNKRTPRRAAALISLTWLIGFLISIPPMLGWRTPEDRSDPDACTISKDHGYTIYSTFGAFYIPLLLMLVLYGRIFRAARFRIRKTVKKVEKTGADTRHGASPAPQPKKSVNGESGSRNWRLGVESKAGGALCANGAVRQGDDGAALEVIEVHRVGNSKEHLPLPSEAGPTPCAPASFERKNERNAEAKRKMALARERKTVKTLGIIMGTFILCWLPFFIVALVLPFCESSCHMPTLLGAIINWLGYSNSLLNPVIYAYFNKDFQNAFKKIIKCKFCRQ

bovine factor Xa = molecular target: T2, bovine factor Xa (Bos taurus, UniProt P00743); experiment: Protease inhibitory assay, chromogenic substrate S-2222; type: biochemical; settings: for experimental hit status, Factor Xa: 1 = hit, 0 = no hit, screening at 200 µM; for V0 / Vi / vinit: FactorXa primary screening, substrate 100 µM, cmpd conc 200 µM; for vinit: replicate values
T2 construct: bovine factor Xa, Chromogenix, 2 nkat/mL; purchased Chromogenix

human thrombin = molecular target: T3, human thrombin (Homo sapiens, UniProt P00734); experiment: Protease inhibitory assay, chromogenic substrate S-2238; type: biochemical; settings: for Ki: plate layout, label = plate position, Cheng-Prusoff, Km 2.6 µM, read-out: Thrombin Ki; for experimental hit status, Thrombin: 1 = hit, 0 = no hit, screening at 200 µM; for V0 / Vi / vinit: Thrombin primary screening, substrate 40 µM, cmpd conc 500 µM; for vinit: replicate values
T3 construct: human thrombin; purchased Sigma-Aldrich

human 5-HT6 receptor = molecular target: T4, human 5-HT6 receptor (Homo sapiens, UniProt P50406); experiment: GPCR radioligand binding assay, [3H]-LSD displacement, HEK293 membranes; settings: for experimental hit status, 5-HT6: 1 = hit, 0 = no hit, tested at 10 µM, hit = 50% or stronger inhibition
T4 construct: expressed in transfected cells

human 5-HT7b receptor = molecular target: T5, human 5-HT7b receptor (Homo sapiens, UniProt P34969); experiment: GPCR radioligand binding assay, [3H]-5-CT displacement, HEK293 membranes; settings: for experimental hit status, 5-HT7: 1 = hit, 0 = no hit, tested at 10 µM, hit = 50% or stronger inhibition
T5 construct: expressed in transfected cells

recombinant SETD2 = molecular target: T6, recombinant SETD2 (Homo sapiens, UniProt Q9BYW2); experiment: SETD2 Chemiluminescence assay (H3K36 tri-methylation); type: biochemical; settings: for SETD2 signal normalised to positive control and internally to compound: nM], replicates; for experimental hit status, SETD2: 1 = hit, 0 = no hit
T6 construct: purchased BPS Bioscience 52060
T6 sequence (Q9BYW2 1418-1714 limits assumed): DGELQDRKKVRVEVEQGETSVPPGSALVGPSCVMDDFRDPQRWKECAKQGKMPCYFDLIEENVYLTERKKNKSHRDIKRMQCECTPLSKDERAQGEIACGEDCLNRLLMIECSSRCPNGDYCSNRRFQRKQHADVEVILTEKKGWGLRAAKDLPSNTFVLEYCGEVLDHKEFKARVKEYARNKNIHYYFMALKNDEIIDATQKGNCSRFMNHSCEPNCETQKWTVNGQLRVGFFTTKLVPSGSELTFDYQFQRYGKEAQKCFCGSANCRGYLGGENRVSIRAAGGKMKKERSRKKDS

[1] = 10 µM, read-out: 5-HT1A % Inhibition by plate position
[2] = 5-HT1A, average of exp_1 and exp_2, read-out: %inh 5-HT1A average
[3] = 5-HT1A, average, values below 0 and above 100% were set as 0 and 100, read-out: %inh 5-HT1A corrected*
[4] = 5-HT1A, replicate exp_1, read-out: %inh 5-HT1A exp_1
[5] = 5-HT1A, replicate exp_2, read-out: %inh 5-HT1A exp_2
[6] = 10 µM, read-out: 5-HT6 % Inhibition by plate position
[7] = 5-HT6, average of exp_1 and exp_2, read-out: %inh 5-HT6 average
[8] = 5-HT6, average, values below 0 and above 100% were set as 0 and 100, read-out: %inh 5-HT6 corrected*
[9] = 5-HT6, replicate exp_1, read-out: %inh 5-HT6 exp_1
[10] = 5-HT6, replicate exp_2, read-out: %inh 5-HT6 exp_2
[11] = 10 µM, read-out: 5-HT7 % Inhibition by plate position
[12] = 5-HT7, average of exp_1 and exp_2, read-out: %inh 5-HT7 average
[13] = 5-HT7, average, values below 0 and above 100% were set as 0 and 100, read-out: %inh 5-HT7 corrected*
[14] = 5-HT7, replicate exp_1, read-out: %inh 5-HT7 exp_1
[15] = 5-HT7, replicate exp_2, read-out: %inh 5-HT7 exp_2

T4 sequence (P50406 whole entry): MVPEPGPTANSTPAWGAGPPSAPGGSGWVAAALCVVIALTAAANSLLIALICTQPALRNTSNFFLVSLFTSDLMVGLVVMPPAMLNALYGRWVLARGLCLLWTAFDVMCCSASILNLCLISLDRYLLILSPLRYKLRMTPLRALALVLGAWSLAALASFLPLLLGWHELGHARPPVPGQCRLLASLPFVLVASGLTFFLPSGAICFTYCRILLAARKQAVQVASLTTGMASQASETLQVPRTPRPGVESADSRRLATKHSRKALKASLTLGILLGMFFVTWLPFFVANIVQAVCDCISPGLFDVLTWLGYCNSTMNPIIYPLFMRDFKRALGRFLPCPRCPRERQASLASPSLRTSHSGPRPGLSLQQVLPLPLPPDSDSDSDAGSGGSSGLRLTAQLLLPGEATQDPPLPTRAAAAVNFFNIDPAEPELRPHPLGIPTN
T2 sequence (P00743 234-492 limits assumed): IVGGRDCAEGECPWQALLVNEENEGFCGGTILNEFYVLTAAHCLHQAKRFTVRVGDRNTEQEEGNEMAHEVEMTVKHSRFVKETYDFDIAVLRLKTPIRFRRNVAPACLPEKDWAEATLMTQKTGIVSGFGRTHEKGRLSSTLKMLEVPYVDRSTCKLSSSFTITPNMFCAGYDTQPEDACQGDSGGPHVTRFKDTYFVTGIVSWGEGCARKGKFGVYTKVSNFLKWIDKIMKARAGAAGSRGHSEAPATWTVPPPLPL
T2 sequence (P00743 41-180 partner limits assumed): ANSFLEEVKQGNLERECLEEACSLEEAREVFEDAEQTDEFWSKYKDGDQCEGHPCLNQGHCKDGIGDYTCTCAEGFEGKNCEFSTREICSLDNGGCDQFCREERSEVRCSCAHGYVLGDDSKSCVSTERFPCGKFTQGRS
T5 sequence (P34969 1-432): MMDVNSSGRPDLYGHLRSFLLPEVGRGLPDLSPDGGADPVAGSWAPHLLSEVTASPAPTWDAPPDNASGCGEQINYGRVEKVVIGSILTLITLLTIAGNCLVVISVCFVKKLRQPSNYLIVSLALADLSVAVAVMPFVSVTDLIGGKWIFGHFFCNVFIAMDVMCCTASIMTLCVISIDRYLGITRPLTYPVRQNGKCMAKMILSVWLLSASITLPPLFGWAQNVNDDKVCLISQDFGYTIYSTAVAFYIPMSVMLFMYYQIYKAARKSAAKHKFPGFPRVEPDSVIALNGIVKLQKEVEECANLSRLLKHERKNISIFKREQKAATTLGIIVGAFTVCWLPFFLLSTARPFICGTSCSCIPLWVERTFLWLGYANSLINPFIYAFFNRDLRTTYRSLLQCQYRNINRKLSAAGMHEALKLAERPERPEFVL

Structure (SMILES)	inhibition at 10 µM (human 5-HT1A receptor; [1]) [%]	inhibition at 10 µM (human 5-HT1A receptor; [2]) [%]	inhibition at 10 µM (human 5-HT1A receptor; [3]) [%]	inhibition at 10 µM (human 5-HT1A receptor; [4]) [%]	inhibition at 10 µM (human 5-HT1A receptor; [5]) [%]	inhibition at 10 µM (human 5-HT6 receptor; [6]) [%]	inhibition at 10 µM (human 5-HT6 receptor; [7]) [%]	inhibition at 10 µM (human 5-HT6 receptor; [8]) [%]	inhibition at 10 µM (human 5-HT6 receptor; [9]) [%]	inhibition at 10 µM (human 5-HT6 receptor; [10]) [%]	inhibition at 10 µM (human 5-HT7b receptor; [11]) [%]	inhibition at 10 µM (human 5-HT7b receptor; [12]) [%]	inhibition at 10 µM (human 5-HT7b receptor; [13]) [%]	inhibition at 10 µM (human 5-HT7b receptor; [14]) [%]	inhibition at 10 µM (human 5-HT7b receptor; [15]) [%]	experimental hit status, SETD2 (recombinant SETD2)	V0 / Vi (bovine factor Xa)	vinit (bovine factor Xa)	V0 / Vi (human thrombin)	vinit (human thrombin)	other results
CC(=O)c1sc(-c2ccc(O)cc2)nc1C [E1]	0	-8.44	0	1.63	-19	65	65	65	71	58	43	43	43	36	50	–	–	–	–	–	Ki (bovine factor Xa): 734 µM; Ki (human thrombin): 229 µM
CS(=O)(=O)Nc1ccc(C(=O)O)cc1 [SX084]	9	9	9	9	9	38	38	38	38	38	9	9	9	5.33	13	–	–	–	–	–	IC50 (recombinant SETD2; chemiluminescence-based enzymatic assay): 500 µM; SETD2 signal normalised to positive control and internally to compound (recombinant SETD2; fragment concentration 4.7 [log): 1.05 and 0.84; SETD2 signal normalised to positive control and internally to compound (recombinant SETD2; fragment concentration 5 [log): 0.76 and 0.6; SETD2 signal normalised to positive control and internally to compound (recombinant SETD2; fragment concentration 5.3 [log): 0.62 and 0.74; SETD2 signal normalised to positive control and internally to compound (recombinant SETD2; fragment concentration 5.6 [log): 0.8 and 0.95; SETD2 signal normalised to positive control and internally to compound (recombinant SETD2; fragment concentration 5.9 [log): 0.66 and 0.73
c1ccc2[nH]ccc2c1 [SX004]	–	–	–	–	–	–	–	–	–	–	–	–	–	–	–	0	–	–	–	–	experimental hit status, 5-HT1 (human 5-HT1A receptor): 0; inhibition at 10 µM (human 5-HT1A receptor; read-out: 5-HT1A % Inhibition by plate position): 0%; inhibition at 10 µM (human 5-HT1A receptor; read-out: %inh 5-HT1A average): -11%; inhibition at 10 µM (human 5-HT1A receptor; read-out: %inh 5-HT1A corrected*): 0%; inhibition at 10 µM (human 5-HT1A receptor; read-out: %inh 5-HT1A exp_1): -0.425%; inhibition at 10 µM (human 5-HT1A receptor; read-out: %inh 5-HT1A exp_2): -21%; experimental hit status, Factor Xa (bovine factor Xa): 0; experimental hit status, Thrombin (human thrombin): 0; experimental hit status, 5-HT6 (human 5-HT6 receptor): 0; inhibition at 10 µM (human 5-HT6 receptor; read-out: 5-HT6 % Inhibition by plate position): 16%; inhibition at 10 µM (human 5-HT6 receptor; read-out: %inh 5-HT6 average): 16%; inhibition at 10 µM (human 5-HT6 receptor; read-out: %inh 5-HT6 corrected*): 16%; inhibition at 10 µM (human 5-HT6 receptor; read-out: %inh 5-HT6 exp_1): 16%; inhibition at 10 µM (human 5-HT6 receptor; read-out: %inh 5-HT6 exp_2): 16%; experimental hit status, 5-HT7 (human 5-HT7b receptor): 0; inhibition at 10 µM (human 5-HT7b receptor; read-out: 5-HT7 % Inhibition by plate position): 0%; inhibition at 10 µM (human 5-HT7b receptor; read-out: %inh 5-HT7 average): -2.64%; inhibition at 10 µM (human 5-HT7b receptor; read-out: %inh 5-HT7 corrected*): 0%; inhibition at 10 µM (human 5-HT7b receptor; read-out: %inh 5-HT7 exp_1): 19%; inhibition at 10 µM (human 5-HT7b receptor; read-out: %inh 5-HT7 exp_2): -24%
Cc1cc2ccccc2nc1N [SX001]	0	-13	0	-0.697	-25	33	33	33	29	37	1.66	1.66	1.66	7	-3.75	0	–	–	–	–	experimental hit status, 5-HT1 (human 5-HT1A receptor): 0; Ki (bovine factor Xa): 149 µM; experimental hit status, Factor Xa (bovine factor Xa): 1; experimental hit status, Thrombin (human thrombin): 0; experimental hit status, 5-HT6 (human 5-HT6 receptor): 0; experimental hit status, 5-HT7 (human 5-HT7b receptor): 0
c1cnc2cccnc2c1 [SX002]	0	-0.719	0	-9	8	24	24	24	27	21	35	35	35	39	31	0	–	–	–	–	experimental hit status, 5-HT1 (human 5-HT1A receptor): 0; experimental hit status, Factor Xa (bovine factor Xa): 0; experimental hit status, Thrombin (human thrombin): 1; Ki (human thrombin): 163 µM; experimental hit status, 5-HT6 (human 5-HT6 receptor): 0; experimental hit status, 5-HT7 (human 5-HT7b receptor): 0
CCc1ccc(NC2=NCCCS2)cc1 [SX-D2]	–	–	–	–	–	–	–	–	–	–	–	–	–	–	–	–	1.02	16.873 and 17.6	0.96	30.909 and 30.582	–
O=C1CCN(c2ccccn2)CC1 [SX-G8]	–	–	–	–	–	–	–	–	–	–	–	–	–	–	–	–	0.97	18.3 and 16.6	0.99	33.236	–
Oc1ccc(C2CCNCC2)cc1 [SX-E11]	–	–	–	–	–	–	–	–	–	–	–	–	–	–	–	–	0.73	18.742 and 20.658	1.00	31.345 and 31.818	–
N#Cc1ccc(C(=O)N2CCOCC2)cc1 [SX-E10]	–	–	–	–	–	–	–	–	–	–	–	–	–	–	–	–	1.00	14.2 and 14.8	1.00	33.091 and 29.782	–
